Where a name gives a salt, the structure may show the parent alone. Read-outs that look alike come from different tables or passages of the source. Bounds are passed on as bounds.

The test system of series [1] is MDA-MB-231 breast cancer cell lines. Put plainly: Evaluation of inhibition on cell growth (MTS). It counts as cell-based. To be noted: Homo sapiens, MDA-MB-231, 120 hours. In a few lines: (§1)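 Cells seeded at 3,000˜5,000 cells/100 μL, grown 24 h at 37° C (MDA-MB-231 under atmospheric conditions), then exposed to 10 μM˜0.1 nM compound. MDA-MB-231 cultured 120 h, read by MTS at 490 nm; fibroblasts cultured 72 h, TCA-fixed, SRB-stained, read at 540 nm. GI50 from growth relative to untreated and medium-only cells.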

A short description of series [2]: Toxicity to normal cells (SRB). The class given is cell-based, mouse. To be noted: mouse, Balb/c3t3 fibroblasts (normal cell line), read-out: BalB/C (GI50). The procedure: MDA-MB-231 breast cancer cell lines (ATCC #HTB-26) and BxPC-3 pancreas cancer cell lines (ATCC #CRL 1687), which have been reported to express XIAP, were obtained from ATCC (American type culture collection; Rockville, Md.). MDA-MB-231 cell lines were incubated in L-15 medium supplemented with 10% FBS and 1% penicillin/streptomycin (Gibco BRL) at a T-75 cm^2 growth flask. In addition, BxPC-3 cell lines were incubated in RPMI medium supplemented with 10% FBS and 1% penicillin/streptomycin. For experiments of toxicity to normal cells, fibroblasts Hs27 (ATCC #CRL 1634) and Balb/c3t3 (ATCC #CCL 163) were used. The various cell lines were transferred into 96-well plates at a density of 3,000˜5,000 cells/100 μL, and cultured for 24 hours under conditions of 37° C., 5% CO2, 95% air, and 100% relative humidity (MDA-MB-231 cells were cultured under atmospheric conditions). The cells were treated with 10 μM˜0.1 nM of test compounds, and MDA-MB-231, BxPC-3, and normal cell lines were cultured for 120, 96, and 72 hours, respectively.
Cell viabilities of MDA-MB-231 cell lines were measured at an absorbance of 490 nm using CellTiter 96™ AQueous One Solution Cell proliferation Assay (MTS, Promega), and cell viabilities of BxPC-3 and normal cell lines were measured by fixing cells with 10% TCA (trichloroacetic acid), staining with SRB (sulforhodamine B), and measuring at 540 nm. From the values, GI50 values in which test compounds reduce the growth of cancer cells by 50% were calculated. The growth rates of cancer cells were calculated from following Equation 1 or 2. [(Ti−Tz)/(C−Tz)]×100 (for Ti>=Tz) [Equation 1] [(Ti−Tz)/Tz]×100 (for Ti<Tz) [Equation 2] In Equations 1 and 2, Tz refers to a density of untreated cells, which is an absorbance in 0% cell growth groups. C refers to a density of cells cultured by adding only medium, and Ti refers to a density of cells treated with test compounds.
GI50 value is the concentration of a test compound when the value of Equation 1 is 50, which indicates the concentration of test compound required to inhibit the cancer cells by 50%. On each measurement, test compounds were compared with a control.
The activity value of each compound (GI50 value) was shown in Table 5, and an IAP antagonist was used as a control.
In the activity measurement on MDA-MB-231 breast cancer cell lines, the values were represented as “***” for 100 nM or less, “**” for over 100 nM to below 1,000 nM, and “*” for 1,000 nM or more. In the measurement on normal cell lines, Balb/C and Hs27, the values were represented as “+++” for 10,000 nM or more, “++” for over 5,000 nM to below 10,000 nM, and “+” for 5,000 nM or less.

The nature of series [3]: Toxicity to normal cells (SRB). The class given is cell-based, human. To be noted: human, Hs27 fibroblasts (normal cell line). In a few lines:
as §1

The compound `CN[C@@H](C)C(=O)N[C@H](C(=O)N1CCC[C@H]1C(=O)Nc1ccc2ncnc(Nc3ccc(F)c(Cl)c3F)c2c1)C(C)(C)C` [Example 48, (S)—N-(4-(3-chloro-2,4-difluorophenylamino)quinazolin-6-yl)-1-((S)-3,3-dimethyl-2-((S)-2-(methylamino)propanamido)butanoyl)pyrrolidine-2-carboxamide] came in with a GI50 in series [1] of at most 0.1 µM. Also, the GI50 at 72 h in series [2] and in series [3] was above 10 µM throughout.

In series [1], `CN[C@@H](C)C(=O)N[C@H](C(=O)N1CCC[C@H]1C(=O)Nc1cc2c(Nc3ccc(N4CCCCC4)cc3)ncnc2cc1OC)C(C)(C)C` [Example 66, (S)-1-((S)-3,3-dimethyl-2-((S)-2-(methylamino)propanamido)butanoyl)-N-(7-methoxy-4-(4-(piperidin-1-yl)phenylamino)quinazolin-6-yl)pyrrolidine-2-carboxamide dihydrochloride] returned a GI50 of at most 0.1 µM. The GI50 at 72 h in series [2] and in series [3] was above 10 µM each time.

In turn, `CN[C@@H](C)C(=O)N[C@H](C(=O)N1CCC[C@H]1C(=O)Nc1cc2c(Nc3ccc(Cl)cc3)ncnc2cc1OC)C(C)(C)C` [Example 56, (S)—N-(4-(4-chlorophenylamino)-7-methoxyquinazolin-6-yl)-1-((S)-3,3-dimethyl-2-((S)-2-(methylamino)propanamido)butanoyl)pyrrolidine-2-carboxamide] showed a GI50 in series [1] of at most 0.1 µM. The GI50 at 72 h in series [2] and in series [3] was above 10 µM in each case.

Turning to `CN[C@@H](C)C(=O)N[C@H](C(=O)N1CCC[C@H]1C(=O)Nc1cc2c(Nc3ccc(F)c(Cl)c3F)ncnc2cc1OCCOC)C(C)(C)C` [Example 6, (S)—N-(4-(3-chloro-2,4-difluorophenylamino)-7-(2-methoxyethoxy)quinazolin-6-yl)-1-((S)-3,3-dimethyl-2-((S)-2-(methylamino)propanamido)butanoyl)pyrrolidine-2-carboxamide hydrochloride], the GI50 in series [1] was in the range of 0.1 to 1 µM. Moreover, the GI50 at 72 h in series [2] and in series [3] was above 10 µM in each case.

Compound `CN[C@@H](C)C(=O)N[C@H](C(=O)N1CCC[C@H]1C(=O)Nc1cc2c(Nc3ccc(N4CCN(C)CC4)cc3)ncnc2cc1OC)C(C)(C)C` [Example 67, (S)-1-((S)-3,3-dimethyl-2-((S)-2-(methylamino)propanamido)butanoyl)-N-(7-methoxy-4-(4-(4-methylpiperazin-1-yl)phenylamino)quinazolin-6-yl)pyrrolidine-2-carboxamide dihydrochloride] came in with a GI50 in series [1] of at most 0.1 µM. Moreover, the GI50 at 72 h in series [2] and in series [3] was above 10 µM in each case.

On to `CN[C@@H](C)C(=O)N[C@H](C(=O)N1CCC[C@H]1C(=O)Nc1cc2c(Nc3ccc(NC(=O)c4ccccc4)cc3)ncnc2cc1OC)C(C)(C)C` [Example 76, (S)—N-(4-(4-benzamidophenylamino)-7-methoxyquinazolin-6-yl)-1-((S)-3,3-dimethyl-2-((S)-2-(methylamino)propanamido)butanoyl)pyrrolidine-2-carboxamide], for which, in series [1], the GI50 is at most 0.1 µM. In addition, the GI50 at 72 h in series [2] and in series [3] was above 10 µM in each case.

For `CN[C@@H](C)C(=O)N[C@H](C(=O)N1CCC[C@H]1C(=O)Nc1cc2c(Nc3ccc(F)c(Cl)c3)ncnc2cc1OCCOC)C(C)(C)C` [Example 5, (S)—N-(4-(3-chloro-4-fluorophenylamino)-7-(2-methoxyethoxy)quinazolin-6-yl)-1-((S)-3,3-dimethyl-2-((S)-2-(methylamino)propanamido)butanoyl)pyrrolidine-2-carboxamide hydrochloride], in series [1], the GI50 lay within 0.1 to 1 µM. For the same compound, the GI50 at 72 h in series [2] and in series [3] was above 10 µM each time.

Values taken from US8835458B2 (Hanmi Science Co., Ltd, priority 2010, dated 2014).
